{"source": "patent US20240325327A1", "about": "“METHOD FOR ATTENUATING NEUROINFLAMMATION, AMYLOIDOPATHY AND TAUOPATHY” (Trustees of Dartmouth College, priority 2023, published 2024)", "key": {"[1]": {"tested_on": "mouse model for Alzheimer's Disease", "details": "in vivo; cited from earlier work"}, "ACAT2 [2]": {"target": "T1, ACAT2 (Homo sapiens, UniProt O75908)", "T1 sequence (O75908 1-522)": "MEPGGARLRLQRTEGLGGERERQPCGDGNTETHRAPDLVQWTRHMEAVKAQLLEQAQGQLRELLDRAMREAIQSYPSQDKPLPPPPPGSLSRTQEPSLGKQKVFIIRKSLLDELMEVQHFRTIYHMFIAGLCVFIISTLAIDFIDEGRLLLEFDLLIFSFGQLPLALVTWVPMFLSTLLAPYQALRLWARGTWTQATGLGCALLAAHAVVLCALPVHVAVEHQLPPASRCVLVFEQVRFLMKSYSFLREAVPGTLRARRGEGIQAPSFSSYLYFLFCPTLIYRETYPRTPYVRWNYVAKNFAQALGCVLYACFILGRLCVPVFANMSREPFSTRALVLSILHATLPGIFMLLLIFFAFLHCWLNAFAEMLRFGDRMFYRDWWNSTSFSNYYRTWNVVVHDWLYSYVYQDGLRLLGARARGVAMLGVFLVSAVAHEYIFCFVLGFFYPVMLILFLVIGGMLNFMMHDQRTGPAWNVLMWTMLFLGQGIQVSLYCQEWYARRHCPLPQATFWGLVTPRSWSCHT", "parameters": "IC50 ACAT2", "details": "cited from earlier work"}, "ACAT2 [3]": {"target": "T1, ACAT2", "details": "at 1 mM; cited from earlier work"}, "IL-4Rα [4]": {"tested_on": "IL-4Rα", "experiment": "IL-4Rα expression in HMC3 microglia (western blot)", "format": "cell-based, human", "details": "for IL-4Rα protein content: human myelin debris-treated HMC3 cells, 48 hours co-incubation", "protocol": "(§1) IL-4Rα expression was determined by convention methods. 25 μg/mL cholesterol equals 38 μg/mL total myelin debris protein. Data are expressed as mean±SEM. *P<0.05; **P<0.01.\n[…] Protein was isolated and analyzed by western blot analysis. Vinculin was the loading control. […] Data are expressed as mean±SEM. *P<0.05; **P<0.01.\n(§2) Subsequently, myelin debris from human brains was prepared and it was observed that the cholesterol/protein ratio, as well as the protein composition between mouse myelin debris and human myelin debris, were very similar."}, "N9 microglial cells": {"tested_on": "N9 microglial cells", "experiment": "inflammatory responses to LPS in N9 microglial cells (qPCR, IκB-α western blot)", "format": "cell-based, mouse", "details": "0.5 μM for 4 hours, then 10, 100 or 1000 ng/mL LPS", "protocol": "Cells were seeded at 1×10^5/well onto 12-well plates in RPMI-1640 with 10% bovine calf serum. […] Six hours later, mRNA was extracted, and qPCR was performed to monitor pro-inflammatory (FIG. 5A) or anti-inflammatory (FIG. 5B) gene expression. […] Thirty minutes later, proteins were extracted for western blot analysis for total IκB-α, and for phosphorylated IκB-α (p-IκB-α). *P<0.05; ** P<0.01.\nIt has now been shown that, in microglia, genetic inactivation of Acat1 suppresses certain pro-inflammatory response genes (FIG. 4A and FIG. 4C, e.g., IL-1β, iNOS, MCP1, Cxc19, Cxc110 and IL-6) and induces certain anti-inflammatory response genes (FIG. 4B and FIG. 4D, e.g., YM1) in the hippocampus (FIG. 4A and FIG. 4B) and cortex (FIG. 4C and FIG. 4D)."}, "ABCA1": {"tested_on": "ABCA1", "experiment": "ABCA1 protein content in human myelin debris-treated HMC3 cells", "format": "cell-based", "details": "human myelin debris at 25 μg/mL cholesterol, 0.5 μM inhibitor, 24 hours", "protocol": "Afterward, cells were harvested for western blot analyses. Lysates of HEK293 cells and lysates of HMC3 cells treated with 10 μM LXR agonist T0901317 for 24 hours were respectively used as negative and positive controls for ABCA1 signals. […] Data are expressed as mean±SEM.\nas §2"}, "IL-4Rα [5]": {"tested_on": "IL-4Rα", "experiment": "IL-4Rα expression in N9 microglia (immunoblot)", "format": "cell-based, mouse", "protocol": "Cells were harvested for immunoblot analysis for IL-4Rα. Vinculin was the loading control. Data expressed as mean+/−SEM, * p<0.05, ** p<0.01.\nas §1\nIn microglia, various cholesterol-rich agents including myelin debris and damaged cell membranes enter the cells. […] In addition, the effects of ACAT1 blockade were tested in N9 and the human microglia-like cell line HMC3, which both express normal TREM-2 receptors."}, "human ACAT1 [6]": {"target": "T2, human ACAT1 (Homo sapiens, UniProt P35610)", "T2 sequence (P35610 1-550)": "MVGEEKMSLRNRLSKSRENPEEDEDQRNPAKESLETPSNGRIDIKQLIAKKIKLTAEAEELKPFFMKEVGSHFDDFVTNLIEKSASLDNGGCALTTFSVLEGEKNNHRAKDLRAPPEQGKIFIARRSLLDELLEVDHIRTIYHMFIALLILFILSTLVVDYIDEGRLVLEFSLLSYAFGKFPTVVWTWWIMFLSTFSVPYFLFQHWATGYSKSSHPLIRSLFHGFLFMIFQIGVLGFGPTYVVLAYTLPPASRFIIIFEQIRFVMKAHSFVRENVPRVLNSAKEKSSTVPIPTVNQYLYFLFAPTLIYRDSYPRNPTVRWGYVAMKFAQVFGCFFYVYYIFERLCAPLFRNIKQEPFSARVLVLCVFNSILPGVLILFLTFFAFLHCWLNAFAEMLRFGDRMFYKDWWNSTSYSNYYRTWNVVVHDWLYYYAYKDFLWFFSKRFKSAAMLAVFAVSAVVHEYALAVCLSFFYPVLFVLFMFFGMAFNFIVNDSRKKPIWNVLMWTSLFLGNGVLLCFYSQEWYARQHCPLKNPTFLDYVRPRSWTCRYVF", "experiment": "mixed liposome ACAT1 assay", "description": "In vitro Mixed Liposomal ACAT Activity Assay. […] Lysed cells were collected and aliquoted into pre-chilled tubes containing the liposomal mixture of taurocholate, phosphatidylcholine, and cholesterol. Tubes were vortexed and kept on ice for 5 minutes. Samples were then incubated in a 37° C. shaking water bath with ^3H-oleoyl CoA added for 10 minutes. The assay was stopped by adding CHCl3:MeOH (2:1). Lipids were extracted and analyzed by the same TLC method described herein."}, "ACAT1": {"tested_on": "ACAT1", "experiment": "ACAT1 inhibition, literature values", "format": "biochemical, human", "details": "ratio of IC50 values ACAT2/ACAT1", "source_text": "Cholesterol is stored as cholesteryl esters. For cholesterol esterification, there are two Acyl-CoA:Cholesterol Acyltransferase (ACAT) genes, SOAT1 and SOAT2, encoding two homologous but distinct enzymes, ACAT1 and ACAT2. Both enzymes use long-chain fatty acyl-CoAs and sterols with 3-beta-OH, including cholesterol and various oxysterols as their substrates. ACAT1 is the major cholesterol storage enzyme in the brain.\nBiophys. Res. Comm. […] Here, the ACAT activity was monitored using the ACAT enzyme assay in vitro."}, "human ACAT1 [7]": {"target": "T2, human ACAT1", "details": "cited from earlier work"}}, "data": [{"compound": "CC(C)c1cc(C(C)C)c(CC(=O)NS(=O)(=O)Oc2c(C(C)C)cccc2C(C)C)c(C(C)C)c1", "note": "[CI 1011]", "values": [{"measurement": "amyloidopathy / cognitive deficits in mouse model for AD", "setting": "[1]", "result": "reduce amyloidopathy"}]}, {"compound": "CCCCCCCC(=O)Nc1ccccc1-c1ccccc1", "note": "[compound 1]", "values": [{"measurement": "IC50", "setting": "ACAT2 [2]", "result": 230, "unit": "µM"}]}, {"compound": "CC(C)c1cccc(C(C)C)c1NC(=O)CC(=O)C(Cc1ccccc1)Cc1ccc(O)cc1", "note": "(centres unmarked) [Compound 1B]", "values": [{"measurement": "IC50", "setting": "ACAT2 [2]", "result": 1.5, "unit": "µM"}]}, {"compound": "CCCCCCCC[C@H](SCCCCCC)C(=O)Nc1c(SC)cc(C)nc1SC", "note": "[CP113,818]", "values": [{"measurement": "amyloidopathy / cognitive deficits in mouse model for AD", "setting": "[1]", "result": "reduce amyloidopathy and rescue cognitive deficits"}]}, {"compound": "CC(C)c1cccc(C(C)C)c1NC(=O)CC(=O)C(Cc1ccccc1)Cc1ccc(OC(=O)CCCCCCN2CCCCCC2=O)cc1", "note": "(centres unmarked) [Compound 1C]", "values": [{"measurement": "IC50", "setting": "ACAT2 [2]", "result": 0.53, "unit": "µM"}]}, {"compound": "COc1ccc([C@@H](O)[C@@H](C)Oc2ccc([C@H]3O[C@H](c4ccc(O[C@H](C)[C@H](O)c5ccc6c(c5)OCO6)c(OC)c4)[C@H](C)[C@H]3C)cc2OC)cc1OC", "note": "[manassantin B]", "values": [{"measurement": "inhibition of hACAT-2", "setting": "ACAT2 [3]", "result": 32, "unit": "%"}]}, {"compound": "CSc1cc(C)nc(SC)c1NC(=O)CN1CCN(CCSc2nc3ccccc3[nH]2)CC1", "note": "[K-604]", "values": [{"measurement": "IL-4Rα protein content", "setting": "IL-4Rα [4]", "result": "IL-4Rα protein content increases"}, {"measurement": "IL-4Rα expression", "setting": "IL-4Rα [4]; mouse myelin debris-treated HMC3 cells, 21 hours", "result": "upregulates IL-4Rα expression"}, {"measurement": "inflammatory responses to LPS", "setting": "N9 microglial cells", "result": "attenuates inflammatory responses to LPS"}, {"measurement": "ABCA1 protein content", "setting": "ABCA1", "result": "increased significantly"}, {"measurement": "IL-4Rα expression", "setting": "IL-4Rα [5]; N9 cells, 0.5 μM for 4 or 12 hours", "result": "increases expression of the receptor IL-4Rα"}, {"measurement": "IL-4Rα expression", "setting": "IL-4Rα [5]; mouse myelin debris-treated N9 cells, 21 hours", "result": "upregulates IL-4Rα expression"}]}, {"compound": "CCCCCCCCCCCCS[C@H](C(=O)Nc1cc(C)c(O)c(C)c1C)c1ccccc1", "note": "[F12511]", "values": [{"measurement": "IL-4Rα protein content", "setting": "IL-4Rα [4]", "result": "IL-4Rα protein content increases"}, {"measurement": "ABCA1 protein content", "setting": "ABCA1", "result": "increased significantly"}, {"measurement": "IC50", "setting": "ACAT2 [2]", "result": 0.11, "unit": "µM"}]}, {"compound": "Saucerneol B", "values": [{"measurement": "IC50", "setting": "ACAT2 [2]", "result": 124, "unit": "µM"}]}, {"compound": "CCCCCCCCC(=O)Nc1cc(-c2ccccc2)nn1-c1ccccc1", "note": "[compound 14]", "values": [{"measurement": "IC50", "setting": "ACAT2 [2]", "result": 75, "unit": "µM"}]}, {"compound": "CCCCCCCCCCCCS(=O)(=O)[C@](F)(C(=O)Nc1cc(C)c(O)c(C)c1C)c1ccccc1", "note": "[F26]", "values": [{"measurement": "EC50", "setting": "human ACAT1 [6]", "result": 0.0058, "unit": "µM"}, {"measurement": "potency relative to F12511 as ACAT1 inhibitor", "setting": "human ACAT1 [6]; ratio of EC50 values", "result": "~7", "unit": "times"}]}, {"compound": "CCCCCCCCC(=O)Nc1ccccc1-c1ccccc1", "note": "[compound 2]", "values": [{"measurement": "IC50", "setting": "ACAT2 [2]", "result": 414, "unit": "µM"}]}, {"compound": "CCCCCCCCCNc1cc(-c2ccccc2)nn1-c1ccccc1", "note": "[compound 16]", "values": [{"measurement": "IC50", "setting": "ACAT2 [2]", "result": 97, "unit": "µM"}]}, {"compound": "CCOC(=O)OC(=O)OCC", "note": "[diethyl pyrocarbonate]", "values": [{"measurement": "selectivity for ACAT1 over ACAT2", "setting": "ACAT1", "result": 4, "unit": "fold"}, {"measurement": "IC50", "setting": "human ACAT1 [7]", "result": 44, "unit": "µM"}, {"measurement": "IC50", "setting": "ACAT2 [2]", "result": 170, "unit": "µM"}]}, {"compound": "CCCCCCCC(=O)Nc1cc(-c2ccccc2)nn1-c1ccccc1", "note": "[compound 13]", "values": [{"measurement": "IC50", "setting": "ACAT2 [2]", "result": 53, "unit": "µM"}]}, {"compound": "CCCC[C@H](C)[C@@H]1CC(=O)N[C@@H](Cc2ccccc2)C(=O)N[C@@H](C)C(=O)N[C@H](CC(C)C)C(=O)O1", "note": "[Beauveriolide I]", "values": [{"measurement": "IC50", "setting": "ACAT2 [2]", "result": 20, "unit": "µM"}]}]}
